Data from US7950396B2, “Treatment for otitis externa” (priority 2006, dated 2011).

Key:
[1] = system: E. fecalis; assay: Photodisinfection of E. fecalis biofilms in vitro (methylene blue plus Periowave laser); format: cell-based, Enterococcus fecalis; conditions: methylene blue and low power laser
Description: (§1) Photodisinfection treatments using methods contemplated by the present invention have been tested against MRSA, Escherichia coli (E. coli), and Enterococcus fecalis (E. fecalis) in vitro and reached high levels of disinfection in within seconds to one minute. Photosensitizing composition comprising of methylene blue at various concentrations ranging from about 0.005 wt % to 0.1 wt % was applied to biofilms of MRSA, E. coli and E. fecalis for about ten seconds. These biofilms were then illuminated by a laser light system at a wavelength of about 665 nm to about 675 nm for a period from about 0 seconds to about 60 seconds (e.g., accumulated energy level of about 0 J/cm^2 to about 9 J/cm^2). The laser light system used was the Periowave™ system which includes a low-intensity laser with power at about 240 mW and the optical probe described in PCT Patent Publication No. WO2006115761.

[2] = system: E. coli; assay: Photodisinfection of E. coli biofilms in vitro (methylene blue plus Periowave laser); format: cell-based, Escherichia coli
Description: as §1

[3] = system: E. coli; assay: SEM evaluation of E. coli biofilms after photodisinfection; format: cell-based, Escherichia coli; conditions: about 0.1 wt % methylene blue, about 10 s contact, 665-675 nm for about 30 seconds, Periowave laser
Procedure: (§2) Biofilms heavily colonized with one to three layers of Escherichia coli (E. coli) organisms were contacted with a photosensitizing composition comprising methylene blue at a concentration of about 0.1 wt % for about 10 seconds and then illuminated at a wavelength of about 665 nm to about 675 nm for a period from about 30 seconds using the Periowave™ laser. Thereafter, these biofilms and the controlled E. coli biofilms (e.g., no photodisinfection treatment) were incubated for three hours in 0.9% saline and then fixed in 10% Formalin for scanning electron microscope (SEM) evaluation.

[4] = system: MRSA; assay: Photodisinfection of MRSA biofilms in vitro (methylene blue plus Periowave laser); format: cell-based, Methicillin-resistant Staphylococcus aureus
Description: as §1

[5] = system: MRSA; assay: SEM evaluation of MRSA biofilms after photodisinfection; format: cell-based, Methicillin-resistant Staphylococcus aureus; conditions: about 0.1 wt % methylene blue, about 10 s contact, 665-675 nm for about 30 seconds, Periowave laser
Procedure: as §2, with “four” for “three”, “MRSA” for “Escherichia coli (E. coli)”, “MRSA” for “E. coli”, “overnight” for “for three hours”, “0.9 wt %” for “0.9%”, “10 wt %” for “10%”

[6] = system: otitis externa; assay: Study on patients suffering otitis externa (photodisinfection, Periowave laser); format: in vivo, human
Procedure: A study was conducted on patients suffering otitis externa. During the study, a photosensitizing composition comprising of methylene blue at a concentration of about 0.01 wt % was applied using a cotton swab to the treatment site as shown in FIG. 37. Thereafter and referring to FIGS. 38-39, light at a wavelength range from about 665 nm to about 675 nm was applied to the photosensitizing composition located within the treatment site 64 for a period from about 3 minutes to about 5 minutes (3-5 repetitive one minute cycles) using the Periowave™ laser light system.

[7] = system: otitis externa; assay: Photodisinfection of otitis externa treatment site (Examples V to VII); format: in vivo
Procedure: A photosensitizing composition comprising of methylene blue at a concentration of about 0.1 wt % is applied to the otitis externa treatment site. Light at a wavelength range from about 650 nm to about 680 nm is applied to the photosensitizing composition located within the otitis externa treatment site for a period from about 6 minutes to about 10 minutes using a laser with power at about 80 mW. The otitis externa was ameliorated.
A photosensitizing composition comprising of methylene blue at a concentration range of from about 0.001 wt % to about 0.1 wt % is applied to the otitis externa treatment site. Light at a wavelength range from about 650 nm to about 680 nm is applied to the photosensitizing composition located within the treatment site for a period from about 1 minute to about 20 minutes using a laser with power at a range from about 50 mW to about 300 mW. The otitis externa was ameliorated.
A photosensitizing composition comprising of toluidine blue at a concentration range of from about 0.001% wt % to about 0.1 wt % is applied to the otitis externa treatment site. Light at a wavelength range from about 620 nm to about 650 nm is applied to the photosensitizing composition located within the otitis externa treatment site for a period from about 1 minute to about 20 minutes using a laser with power at a range from about 50 mW to about 300 mW. The otitis externa was ameliorated.
For Examples V to VII, it was shown that there is a general inverse relationship between (1) the photosensitizer concentration and (2) the photodisinfection treatment time and/or the amount of power required for the light source. For example, higher concentration of photosensitizer requires less treatment time and/or lower light source power. Conversely, lower concentration of photosensitizer requires longer treatment time and/or higher light source power. Also, less treatment time requires higher concentration of photosensitizer and/or higher light source power.

[8] = at least 0.02 wt % methylene blue, about 10 s contact, laser 665-675 nm for at least 15 seconds (at least 2.25 J/cm^2), 240 mW
[9] = methylene blue and low power laser

| Structure (SMILES) | elimination of E. Fecalis by photodisinfection [1] | reduction of E. coli (logs) [2, 8] | elimination of E. coli by photodisinfection [2, 9] | reduction of E. coli in SEM photograph vs controlled biofilm [3] | reduction of MRSA (logs) [4, 8] | elimination of MRSA by photodisinfection [4, 9] | reduction of MRSA in SEM photograph vs controlled biofilm [5] | outcome of otitis externa, many patients ([6]; about 0.01 wt % methylene blue by cotton swab, 665-675 nm for about 3 to 5 minutes (3-5 one minute cycles)) | outcome of otitis externa, patients with severe otitis externa ([6]; same protocol, about 2 to about 5 additional treatments over about one to two weeks) | outcome of otitis externa ([7]; about 0.001 to 0.1 wt %, 650-680 nm for about 1 to 20 minutes, laser about 50 to 300 mW) | outcome of otitis externa ([7]; about 0.1 wt %, 650-680 nm for about 6 to 10 minutes, laser about 80 mW) | outcome of otitis externa ([7]; about 0.001 to 0.1 wt %, 620-650 nm for about 1 to 20 minutes, laser about 50 to 300 mW) |
| --- | --- | --- | --- | --- | --- | --- | --- | --- | --- | --- | --- | --- |
| CN(C)c1ccc2nc3ccc(=[N+](C)C)cc-3sc2c1 [methylene blue] | effectively eliminated | at least three logs | effectively eliminated | substantial reduction of E. coli | at least three logs | effectively eliminated | substantial reduction of MRSA | ameliorated | also ameliorated | ameliorated | ameliorated | – |
| Cc1cc2nc3ccc(N(C)C)cc3[s+]c2cc1N.[Cl-] [toluidine blue] | – | – | – | – | – | – | – | – | – | – | – | ameliorated |
